Assay results reported in US20240327359A1, “3-ISOXAZOLIDINONE COMPOUND, PREPARATION METHOD, HERBICIDAL COMPOSITION AND APPLICATION THEREOF” (QINGDAO KINGAGROOT CHEMICAL COMPOUND CO., LTD., priority 2021, published 2024).

Legend:
Type in all cases: in vivo
Digitaria sanguinalis = experiment: Weeding effect in post-emergence stage; conditions: 720 g a.i./ha, 3 weeks after application
From the text: (§1) The activity level criteria for plant damage (i.e., growth control rate) are as follows:
(§2) The above growth control rates are fresh weight control rates.
(§3) Monocotyledonous and dicotyledonous weed seeds (Descurainia sophia, Capsella bursa-pastoris, Abutilon theophrasti, Galium aparine, Stellaria media, Lithospermum arvense, Rorippa indica, Alopecurus aequalis, Alopecurus japonicus, Eleusine indica, Beckmannia syzigachne, Sclerochloa dura, Phleum paniculatum, Veronica didyma, Bromus japonicus, Aegilops tauschii, Phalaris arundinacea, Amaranthus retroflexus, Chenopodiaceae, Commelina communis, Sonchus arvensis, Convolvulus arvensis, Cirsium setosum, Solanumnigrum, Acalypha australis, Digitaria sanguinalis, Echinochloa crusgalli, Setaria viridis, Setaria glauca, Leptochloa chinensis, Monochoria vaginalis, Sagittaria trifolia, Scirpus juncoides, Cyperus rotundus, Cyperus iria, Cyperus difformis, Fimbristylis, Portulaca oleracea, Xanthium sibiricum, Pharbitis nil, Conyza Canadensis, etc.) and major crop seeds (wheat, corn, rice, soybean, cotton, oilseed rape, millet, sorghum, potato, sesame, ricinus, etc.) were placed in plastic pots filled with soil, then covered with 0.5-2 cm of soil, allowed to grow in a good greenhouse environment. Two weeks after sowing, the test plants were treated in the 2-3 leaf stage. The tested compounds of the present invention were respectively dissolved in acetone, then added with Tween 80 and 1.5 liter/ha of emulsifiable concentrate of methyl oleate as synergist, diluted with a certain amount of water to obtain a solution of a certain concentration, and sprayed by a spray tower onto the plants. After the application, the plants were cultured for 3 weeks in the greenhouse, and then the experimental results of the weeding were recorded. The doses of the used compounds were 45, 90, 180, 360, 720 g a.i./ha, and the averages were obtained from three replicates.

Alopecurus japonicus = experiment: Weeding effect in post-emergence stage; conditions: 720 g a.i./ha, 3 weeks after application
From the text: as §1, §2, §3

Leptochloa chinensis [1] = experiment: Weeding effect in post-emergence stage; conditions: 720 g a.i./ha, 3 weeks after application
From the text: as §1, §2, §3

Abutilon theophrasti = experiment: Weeding effect in post-emergence stage; conditions: 720 g a.i./ha, 3 weeks after application
From the text: as §1, §2, §3

cotton = experiment: Pre-emergence stage, crop damage; conditions: 2 weeks
From the text: as §1, §2
(§4) Monocotyledonous and dicotyledonous weed seeds (Descurainia sophia, Capsella bursa-pastoris, Abutilon theophrasti, Galium aparine, Stellaria media, Lithospermum arvense, Rorippa indica, Alopecurus aequalis, Alopecurus japonicus, Eleusine indica, Beckmannia syzigachne, Sclerochloa dura, Phleum paniculatum, Veronica didyma, Bromus japonicus, Aegilops tauschii, Phalaris arundinacea, Amaranthus retroflexus, Chenopodiaceae, Commelina communis, Sonchus arvensis, Convolvulus arvensis, Cirsium setosum, Solanumnigrum, Acalypha australis, Digitaria sanguinalis, Echinochloa crusgalli, Setaria viridis, Setaria glauca, Leptochloa chinensis, Monochoria vaginalis, Sagittaria trifolia, Scirpus juncoides, Cyperus rotundus, Cyperus iria, Cyperus difformis, Fimbristylis, Portulaca oleracea, Xanthium sibiricum, Pharbitis nil, Conyza Canadensis, etc.) and major crop seeds (wheat, corn, rice, soybean, cotton, oilseed rape, millet, sorghum, potato, sesame, ricinus, etc.) were placed in plastic pots filled with soil, then covered with 0.5-2 cm of soil, allowed to grow in a good greenhouse environment. The test plants were treated on the day of sowing. The tested compounds of the present invention were respectively dissolved in acetone, then added with Tween 80, diluted with a certain amount of water to obtain a solution of a certain concentration, and sprayed by a spray tower onto the plants. After the application, the plants were cultured for 2 weeks in the greenhouse, and then the experimental results of the weeding were recorded. The doses of the used compounds were 3, 6, 12, 24, 48 g ai./mu (1 mu=1/15 ha), and the averages were obtained from three replicates.

peanut = experiment: Pre-emergence stage, crop damage; conditions: 48 g a.i./mu, 2 weeks
From the text: as §1, §2, §4

rice [2] = experiment: Pre-emergence stage, crop damage; conditions: 2 weeks
From the text: as §1, §2, §4

corn = experiment: Pre-emergence stage, crop damage; conditions: 24 g a.i./mu, 2 weeks
From the text: as §1, §2, §4

soy bean = experiment: Pre-emergence stage, crop damage; conditions: 2 weeks
From the text: as §1, §2, §4

wheat [3] = experiment: Pre-emergence stage, crop damage; conditions: 2 weeks
From the text: as §1, §2, §4

rice [4] = experiment: Post-emergence stage, crop damage; conditions: 720 g a.i./ha, 3 weeks after application
From the text: as §1, §2, §3

wheat [5] = experiment: Post-emergence stage, crop damage; conditions: 720 g a.i./ha, 3 weeks after application
From the text: as §1, §2, §3

Echinochloa crusgalli = experiment: Weeding effect in pre-emergence stage; conditions: 2 weeks
From the text: as §1, §2, §4

Lolium perenne = experiment: Weeding effect in pre-emergence stage; conditions: 2 weeks
From the text: as §1, §2, §4

Descurainia sophia = experiment: Weeding effect in pre-emergence stage; conditions: 2 weeks
From the text: as §1, §2, §4

Veronica didyma = experiment: Weeding effect in pre-emergence stage; conditions: 2 weeks
From the text: as §1, §2, §4

Leptochloa chinensis [6] = experiment: Weeding effect in pre-emergence stage; conditions: 2 weeks
From the text: as §1, §2, §4

weeds = experiment: Activity test of the compositions, soil sealing treatment; conditions: read-out: Control effect (%) of B applied alone (B)
Summary of the method: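 Pre-emergence soil spray at 450 kg/ha, 0.3 MPa, applied 72 h after sowing pre-germinated seeds, 20 seeds per pot, 4 pots, 4 repeats; actives in acetone diluted with 0.10% Tween-80. Greenhouse, 20 to 30° C; surviving weed fresh weight measured 21 days after treatment.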

[7] = test system: Echinochloa crusgalli, Scirpus juncoides, Bidens tripartita L., Sagittaria trifolia; experiment: Tests on resistance of the collected weeds to pyrazosulfuron-ethyl; conditions: regular doses; weed seeds collected from Heilongjiang Province of China
From the text: Note: The seeds of Echinochloa crusgalli, Scirpus juncoides and Bidens tripartita L., and Sagittaria trifolia were collected from Heilongjiang Province of China.

**Q.** What does the source list for `CC1(C)CON(Cc2ccc(Cl)cc2Cl)C1=O` [Control compound A, bixlozone]?
**A.** weeding effect in post-emergence stage, activity level (growth control rate) (Digitaria sanguinalis): 3 (Level 3: growth control rate is greater than or equal to 40% and less than 60%); weeding effect in post-emergence stage, activity level (growth control rate) (Alopecurus japonicus): 3 (Level 3: growth control rate is greater than or equal to 40% and less than 60%); weeding effect in post-emergence stage, activity level (growth control rate) (Leptochloa chinensis [1]): 2 (Level 2: growth control rate is greater than or equal to 20% and less than 40%); weeding effect in post-emergence stage, activity level (growth control rate) (Abutilon theophrasti): 4 (Level 4: growth control rate is greater than or equal to 60% and less than 85%); plant damage level (growth control rate) on crop, pre-emergence stage (cotton; 12 g a.i./mu): 1 (Level 1: growth control rate is greater than 0% and less than 15%); plant damage level (growth control rate) on crop, pre-emergence stage (cotton; 24 g a.i./mu): 2 (Level 2: growth control rate is greater than or equal to 15% and less than 30%); plant damage level (growth control rate) on crop, pre-emergence stage (peanut): 1 (Level 1: growth control rate is greater than 0% and less than 15%); plant damage level (growth control rate) on crop, pre-emergence stage (rice [2]; 6 g a.i./mu): 1 (Level 1: growth control rate is greater than 0% and less than 15%); plant damage level (growth control rate) on crop, pre-emergence stage (rice [2]; 12 g a.i./mu): 2 (Level 2: growth control rate is greater than or equal to 15% and less than 30%); plant damage level (growth control rate) on crop, pre-emergence stage (rice [2]; 24 g a.i./mu): 4 (Level 4: growth control rate is greater than or equal to 40% and less than 50%); plant damage level (growth control rate) on crop, pre-emergence stage (corn): 2 (Level 2: growth control rate is greater than or equal to 15% and less than 30%); plant damage level (growth control rate) on crop, pre-emergence stage (soy bean; 24 g a.i./mu): 1 (Level 1: growth control rate is greater than 0% and less than 15%); plant damage level (growth control rate) on crop, pre-emergence stage (soy bean; 48 g a.i./mu): 2 (Level 2: growth control rate is greater than or equal to 15% and less than 30%); plant damage level (growth control rate) on crop, pre-emergence stage (wheat [3]; 6 g a.i./mu): 1 (Level 1: growth control rate is greater than 0% and less than 15%); plant damage level (growth control rate) on crop, pre-emergence stage (wheat [3]; 12 g a.i./mu): 1 (Level 1: growth control rate is greater than 0% and less than 15%); plant damage level (growth control rate) on crop, pre-emergence stage (wheat [3]; 24 g a.i./mu): 2 (Level 2: growth control rate is greater than or equal to 15% and less than 30%); plant damage level (growth control rate) on crop, post-emergence stage (rice [4]): 2 (Level 2: growth control rate is greater than or equal to 20% and less than 40%); plant damage level (growth control rate) on crop, post-emergence stage (wheat [5]): 3 (Level 3: growth control rate is greater than or equal to 40% and less than 60%); weeding effect in pre-emergence stage, activity level (growth control rate) (Echinochloa crusgalli; 3 g a.i./mu): 7 (Level 7: growth control rate is greater than or equal to 70% and less than 80%); weeding effect in pre-emergence stage, activity level (growth control rate) (Echinochloa crusgalli; 6 g a.i./mu): 9; weeding effect in pre-emergence stage, activity level (growth control rate) (Echinochloa crusgalli; 12 g a.i./mu): 9; weeding effect in pre-emergence stage, activity level (growth control rate) (Echinochloa crusgalli; 24 g a.i./mu): 9; weeding effect in pre-emergence stage, activity level (growth control rate) (Lolium perenne; 6 g a.i./mu): 2 (Level 2: growth control rate is greater than or equal to 15% and less than 30%); weeding effect in pre-emergence stage, activity level (growth control rate) (Lolium perenne; 24 g a.i./mu): 9; weeding effect in pre-emergence stage, activity level (growth control rate) (Descurainia sophia; 3 g a.i./mu): 4 (Level 4: growth control rate is greater than or equal to 40% and less than 50%); weeding effect in pre-emergence stage, activity level (growth control rate) (Descurainia sophia; 6 g a.i./mu): 4 (Level 4: growth control rate is greater than or equal to 40% and less than 50%); weeding effect in pre-emergence stage, activity level (growth control rate) (Descurainia sophia; 12 g a.i./mu): 9; weeding effect in pre-emergence stage, activity level (growth control rate) (Descurainia sophia; 24 g a.i./mu): 9; weeding effect in pre-emergence stage, activity level (growth control rate) (Veronica didyma; 6 g a.i./mu): 8 (Level 8: growth control rate is greater than or equal to 80% and less than 100%); weeding effect in pre-emergence stage, activity level (growth control rate) (Veronica didyma; 12 g a.i./mu): 9; weeding effect in pre-emergence stage, activity level (growth control rate) (Veronica didyma; 24 g a.i./mu): 9; weeding effect in pre-emergence stage, activity level (growth control rate) (Leptochloa chinensis [6]; 3 g a.i./mu): 6 (Level 6: growth control rate is greater than or equal to 60% and less than 70%); weeding effect in pre-emergence stage, activity level (growth control rate) (Leptochloa chinensis [6]; 6 g a.i./mu): 9; weeding effect in pre-emergence stage, activity level (growth control rate) (Leptochloa chinensis [6]; 12 g a.i./mu): 9; weeding effect in pre-emergence stage, activity level (growth control rate) (Leptochloa chinensis [6]; 24 g a.i./mu): 9; pest or weed control at 30 g/ha (weeds; Echinochloa crus-galli, 504 h, Echinochloa crusgalli, soil treatment (S), B at 2 g a.i./mu, 21 days): 41.3%; pest or weed control at 60 g/ha (weeds; Echinochloa crus-galli, 504 h, Echinochloa crusgalli, soil treatment (S), B at 4 g a.i./mu, 21 days): 50.3%

**Q.** With `CCOC(=O)c1cnn(C)c1S(=O)(=O)NC(=O)Nc1nc(OC)cc(OC)n1` [pyrazosulfuron-ethyl, reference compound] as the compound, how does the “response of the collected weeds to pyrazosulfuron-ethyl” value [7] read?
**A.** resistant

**Q.** What about the pest or weed control at 3.75 g/ha (weeds; Cyperus difformis, soil (S), B 0.25 g a.i./mu) of the same compound?
**A.** 44.8%

**Q.** And the pest or weed control at 7.5 g/ha (weeds; Cyperus difformis, soil (S), B 0.5 g a.i./mu)?
**A.** 59.7%
